These are literature values, as cited in publication PMC9460038, “Antigiardial Activity of Foeniculum vulgare Hexane Extract and Some of Its Constituents” (Plants, 2022).

The data set has as its system multidrug resistant (MDR) clinical isolates of Mycobacterium tuberculosis. To be noted: three MDR clinical isolates; cited from earlier work.

Consider `CCCCCC/C=C/C=C/C=O` [Trans, trans-2,4-undecadienal, trans, trans-2,4-undecadienal], for which the MIC – broadly, the least concentration at which growth counts as inhibited – was 25 to 50 µg/mL.
